Tests used:
Type in all cases: cell-based
TRPV4 = biological target: T1, TRPV4 (Homo sapiens, UniProt Q9HBA0); assay: [Ca2+]i selectivity assay, CHO cells stably expressing hTRPV4, 4α-PDD activation; conditions: 300 nM AM237; 5 μM 4α-PDD
T1 construct: expressed in transfected cells

[1] = biological target: T2, TRPC4-SYFP2 (TRPC4:C4 channels) (Homo sapiens, UniProt Q9UBN4); assay: [Ca2+]i measurement in (Tet+) HEK T-REx cells expressing hTRPC4-SYFP2
T2 construct: expressed in transfected cells
T2 sequence (Q9UBN4 1-893 isoform Q9UBN4-2): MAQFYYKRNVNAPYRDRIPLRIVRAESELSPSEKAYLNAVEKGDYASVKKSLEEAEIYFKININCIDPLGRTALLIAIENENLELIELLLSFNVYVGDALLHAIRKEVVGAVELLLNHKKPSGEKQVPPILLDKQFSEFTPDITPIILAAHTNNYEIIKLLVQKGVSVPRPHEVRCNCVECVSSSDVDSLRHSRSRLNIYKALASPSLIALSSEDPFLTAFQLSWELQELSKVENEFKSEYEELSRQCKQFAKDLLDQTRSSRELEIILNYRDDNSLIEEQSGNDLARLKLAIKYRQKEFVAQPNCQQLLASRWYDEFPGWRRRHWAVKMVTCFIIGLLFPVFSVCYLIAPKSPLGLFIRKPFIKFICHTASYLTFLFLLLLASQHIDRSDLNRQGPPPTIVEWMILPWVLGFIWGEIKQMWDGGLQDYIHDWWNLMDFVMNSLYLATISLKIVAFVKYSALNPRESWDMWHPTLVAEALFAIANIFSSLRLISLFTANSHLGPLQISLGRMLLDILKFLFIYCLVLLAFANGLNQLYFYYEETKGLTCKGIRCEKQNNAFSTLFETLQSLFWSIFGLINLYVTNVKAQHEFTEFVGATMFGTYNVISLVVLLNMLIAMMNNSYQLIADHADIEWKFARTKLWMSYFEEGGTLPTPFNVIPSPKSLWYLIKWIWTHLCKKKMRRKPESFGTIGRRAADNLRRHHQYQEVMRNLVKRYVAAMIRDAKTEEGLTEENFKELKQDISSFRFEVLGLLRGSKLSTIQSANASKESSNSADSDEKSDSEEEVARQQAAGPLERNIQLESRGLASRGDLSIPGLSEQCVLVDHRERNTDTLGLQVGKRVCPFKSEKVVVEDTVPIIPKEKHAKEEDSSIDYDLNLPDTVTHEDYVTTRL
From the text: To facilitate cloning of TRPC5‐SYFP2 and TRPC4‐SYFP2, a pcDNA™4/TO expression vector (ThermoFisher Scientific, Waltham, MA, USA), into which a four amino acid linker (ASAS) flanked by AgeI and SacII restriction sites had been introduced between EcoRI and XhoI restriction sites, was used (Naylor et al., 2016). Human TRPC4β was inserted between BamHI and AgeI restriction sites as described previously (Ludlow et al., 2017). Human TRPC5 (forward primer: 5′ GCTTGGTACCGCCACCATG 3′ and reverse primer: 5′ […] 3′) was inserted upstream of the linker between KpnI and AgeI restriction sites using hTRPC5/pcDNA™4/TO (Zeng et al., 2004) as a PCR template. Both constructs contained an N‐terminal Kozak sequence. SYFP2 was inserted downstream of the linker between SacII and XbaI restriction sites using pSYFP2‐C1 as a PCR template (forward primer, 5′ […] 3′; reverse primer, 5′ […] 3′). pSYFP2‐C1 was a gift from Dorus Gadella (Addgene plasmid #22878; http://n2t.net/addgene:22878; RRID:Addgene_22878; Kremers, Goedhart, van Munster, & Gadella, 2006). Plasmids were sequenced to verify identity.
HEK T‐REx™ cell line was transfected with TRPC5‐SYFP2 or TRPC4‐SYFP2 using FuGENE® HD transfection reagent. After 48 hr, cells were put under antibiotic selection using 400 μg·ml^−1 zeocin and 10 μg·ml^−1 blasticidin S (Invivogen, San Diego, California, USA). Medium changes were carried out regularly to remove dead cells. HEK T‐REx cells expressing tetracycline‐inducible human TRPC5, TRPC4–C1, and TRPC5–C1 were created as described previously (Akbulut et al., 2015; Ludlow et al., 2017; Rubaiy, Ludlow, Henrot, et al., 2017). TRPC5–C1 and TRPC4–C1 concatemers allow expression of functional channels with defined 2:2 stoichiometry that display ion permeability and current–voltage relationships distinct from those of homomeric TRPC4:C4 or TRPC5:C5 channels and consistent with those obtained upon co‐expression of TRPC1 with TRPC4 or TRPC5 (Ludlow et al., 2017; Rubaiy, Ludlow, Bon, & Beech, 2017; Rubaiy, Ludlow, Henrot, et al., 2017). […]

[2] = biological target: T3, native TRPC1:C4 channels in A498 cells (Homo sapiens, UniProt P48995+Q9UBN4); assay: [Ca2+]i measurement in A498 renal carcinoma cells
T3 construct: A498 renal carcinoma cells, which endogenously express TRPC1:C4 channels; endogenous in cells; host or cells: A498
T3 sequence (Q9UBN4 whole entry): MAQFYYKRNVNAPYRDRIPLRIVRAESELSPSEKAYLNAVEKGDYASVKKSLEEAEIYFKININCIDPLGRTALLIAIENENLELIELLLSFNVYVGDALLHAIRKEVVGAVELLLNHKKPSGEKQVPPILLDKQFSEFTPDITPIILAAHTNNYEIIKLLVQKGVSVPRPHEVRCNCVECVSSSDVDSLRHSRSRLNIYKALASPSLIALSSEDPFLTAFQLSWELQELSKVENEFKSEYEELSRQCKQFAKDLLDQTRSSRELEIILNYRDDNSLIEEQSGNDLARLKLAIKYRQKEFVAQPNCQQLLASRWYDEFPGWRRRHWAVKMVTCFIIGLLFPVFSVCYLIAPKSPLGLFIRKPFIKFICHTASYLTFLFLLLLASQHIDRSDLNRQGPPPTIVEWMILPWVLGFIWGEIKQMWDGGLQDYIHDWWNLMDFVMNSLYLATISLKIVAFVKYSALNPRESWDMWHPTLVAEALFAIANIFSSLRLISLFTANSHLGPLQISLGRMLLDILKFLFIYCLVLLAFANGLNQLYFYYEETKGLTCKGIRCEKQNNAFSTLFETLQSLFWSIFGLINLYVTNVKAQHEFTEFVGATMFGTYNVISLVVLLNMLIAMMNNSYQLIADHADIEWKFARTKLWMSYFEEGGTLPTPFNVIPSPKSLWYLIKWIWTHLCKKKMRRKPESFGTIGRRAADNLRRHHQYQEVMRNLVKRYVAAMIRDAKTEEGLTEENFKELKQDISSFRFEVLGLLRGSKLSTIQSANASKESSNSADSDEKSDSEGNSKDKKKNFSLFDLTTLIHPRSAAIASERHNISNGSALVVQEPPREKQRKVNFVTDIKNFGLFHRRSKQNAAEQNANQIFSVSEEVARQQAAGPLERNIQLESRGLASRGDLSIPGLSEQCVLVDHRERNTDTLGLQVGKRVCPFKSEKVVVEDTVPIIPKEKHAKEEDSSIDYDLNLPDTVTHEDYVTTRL
T3 sequence (P48995 whole entry): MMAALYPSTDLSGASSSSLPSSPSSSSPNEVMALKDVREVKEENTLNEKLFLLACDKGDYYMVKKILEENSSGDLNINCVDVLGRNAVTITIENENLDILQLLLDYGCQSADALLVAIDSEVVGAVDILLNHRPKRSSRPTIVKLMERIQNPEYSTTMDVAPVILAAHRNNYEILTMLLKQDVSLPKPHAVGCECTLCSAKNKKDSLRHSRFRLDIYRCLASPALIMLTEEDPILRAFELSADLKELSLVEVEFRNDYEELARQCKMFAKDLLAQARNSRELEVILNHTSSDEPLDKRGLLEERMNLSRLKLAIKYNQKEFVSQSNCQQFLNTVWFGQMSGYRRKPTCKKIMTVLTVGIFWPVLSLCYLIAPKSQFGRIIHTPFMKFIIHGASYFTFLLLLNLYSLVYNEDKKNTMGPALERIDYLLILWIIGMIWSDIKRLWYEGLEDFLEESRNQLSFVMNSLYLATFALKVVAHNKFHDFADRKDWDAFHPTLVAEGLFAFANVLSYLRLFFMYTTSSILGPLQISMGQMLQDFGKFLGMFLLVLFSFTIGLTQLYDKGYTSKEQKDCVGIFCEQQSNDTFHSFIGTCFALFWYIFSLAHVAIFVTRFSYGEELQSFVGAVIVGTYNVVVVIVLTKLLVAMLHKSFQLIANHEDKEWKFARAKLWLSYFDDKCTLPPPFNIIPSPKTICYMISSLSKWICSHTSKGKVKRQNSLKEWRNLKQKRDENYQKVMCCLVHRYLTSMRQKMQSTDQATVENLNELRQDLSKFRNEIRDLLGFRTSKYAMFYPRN

T1 sequence (Q9HBA0 whole entry): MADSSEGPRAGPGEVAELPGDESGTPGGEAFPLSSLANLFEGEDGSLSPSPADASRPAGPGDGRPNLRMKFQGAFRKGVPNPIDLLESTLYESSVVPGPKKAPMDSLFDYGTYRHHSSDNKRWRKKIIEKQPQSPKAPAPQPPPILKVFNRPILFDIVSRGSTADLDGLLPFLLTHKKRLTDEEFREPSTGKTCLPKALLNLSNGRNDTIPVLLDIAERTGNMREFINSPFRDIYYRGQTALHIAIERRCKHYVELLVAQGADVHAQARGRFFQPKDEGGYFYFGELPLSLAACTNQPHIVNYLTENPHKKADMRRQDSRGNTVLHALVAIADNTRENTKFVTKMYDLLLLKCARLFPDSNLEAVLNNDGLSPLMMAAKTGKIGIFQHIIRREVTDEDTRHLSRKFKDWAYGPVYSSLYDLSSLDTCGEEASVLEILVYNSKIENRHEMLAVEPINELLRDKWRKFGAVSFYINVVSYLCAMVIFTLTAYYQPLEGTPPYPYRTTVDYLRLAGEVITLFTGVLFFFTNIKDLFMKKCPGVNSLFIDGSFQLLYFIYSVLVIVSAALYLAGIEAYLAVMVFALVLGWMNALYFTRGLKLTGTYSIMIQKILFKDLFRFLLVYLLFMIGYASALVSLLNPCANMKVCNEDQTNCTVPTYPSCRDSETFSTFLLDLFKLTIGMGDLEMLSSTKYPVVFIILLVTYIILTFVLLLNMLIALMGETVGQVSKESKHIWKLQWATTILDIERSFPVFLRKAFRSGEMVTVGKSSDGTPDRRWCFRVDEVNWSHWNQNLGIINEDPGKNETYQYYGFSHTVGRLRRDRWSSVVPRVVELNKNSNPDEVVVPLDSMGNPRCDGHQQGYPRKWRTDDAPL

Compound: Cn1c(=O)n(CCCO)c(=O)c2c1nc(Oc1ccc(Cl)c(OC(F)(F)F)c1)n2Cc1ccc(Cl)cc1 [AM237]
- Activation or inhibition of TRPV4 (TRPV4): no activation or inhibition
- Hill slope, inhibition of EA response [1]: −0.78
- Effect of pretreatment on basal [Ca2+]i ([1]; 0.3–300 nM AM237): did not affect
- Activation upon acute administration ([Ca2+]i) ([1]; 3-300 nM AM237): lack of activation
- Hill slope, inhibition of EA response [2]: -0.99
- Effect of pretreatment on basal [Ca2+]i ([2]; 0.01–10 nM AM237): no effect
- Activation upon acute administration ([Ca2+]i) ([2]; 3-300 nM AM237): lack of activation
- IC50 ([2]; AM237 pretreatment, then EA, read-out: IC50, inhibition of EA-mediated increase in [Ca2+]i): 0.849 nM
